Test results as given in article PMC6161602, “Synthesis and characterisation of (Z)-styrylbenzene derivatives as potential selective anticancer agents” (Journal of Enzyme Inhibition and Medicinal Chemistry, 2018).

Assays:
[1] = tested on: BEL-7402 cells; assay: MTT cell growth inhibition assay, BEL-7402; type: cell-based, human; details: for IC50: Homo sapiens, MTT, 48 h incubation, Bel-7402
Excerpt: (§1) All human cell lines were used in this study. MGC-803 late-stage differentiation gastric cancer cell, A549 lung cancer cell, HepG2 hepatoma cell, AGS gastric cancer cell, BEL-7402 liver cancer cell, HCT-116 colorectal cancer cell, HeLa cervical cancer cell, SGC-7901 early differentiation gastric cancer cell, L-02 normal liver cell, MCF-7 breast cancer cell, and MCF-10A normal breast cell were initially purchased from American Type Culture Collection (ATCC, Manassas, VA, USA). RPMI-1640 media, Dulbecco’s modified Eagle’s medium (DMEM), and foetal bovine serum (FBS) were provided from Gibco Company (Grand Island, NY, USA). The cells were maintained in DMEM or RPMI-1640, supplemented with 10% FBS, 100 IU/mL penicillin and […] (Grand Island, NY, USA), and at 37 °C in a humidified atmosphere containing 5% CO2.
(§2) Cells were plated in 96-well plates at a density of 30–40% to ensure exponential growth throughout the experimental period, and then allowed to adhere for 1 day[21]. Next, the cells were treated with four serial concentrations (1, 10, 50, and 100 µM) of each compound. Taxol, CA-4, and CA-4P (phosphorylated form of CA-4) were used as positive controls. After 48 h incubation, MTT solution was added to each well at a final concentration of 2 mg/mL, and incubated for an additional 4 h. Next, the MTT solution was removed and 150 µL of dimethyl sulphoxide (DMSO)/well was added (Sigma-Aldrich, St Louis, MO, USA). The plates were shaken vigorously at RT to ensure complete solubilisation, and absorption at 492 nm was determined.
(§3) According to standard protocol, preliminary in vitro anti-proliferative activities of the synthesised compounds were evaluated by MTT assay, using nine human cancer cell lines (MGC-803, A549, HepG2, AGS, BEL-7402, HCT116, HeLa, SGC-7901, and MCF-7) and two normal human cell lines (L-02 and MCF-10A), and compared with those of CA-4, CA-4P, and taxol.

[2] = tested on: MGC-803 cells; assay: MTT cell growth inhibition assay, MGC-803; type: cell-based, human; details: Homo sapiens, MTT, 48 h incubation, MGC-803
Excerpt: as §1, §2, §3

[3] = tested on: MCF-7 breast cancer cell; assay: MTT cell growth inhibition assay, MCF-7; type: cell-based, human; details: for IC50: Homo sapiens, MCF7, MTT, 48 h incubation, MCF-7
Excerpt: as §1, §2, §3

[4] = tested on: A549 lung cancer cell; assay: MTT cell growth inhibition assay, A549; type: cell-based, human; details: Homo sapiens; MTT, 48 h incubation, A549
Excerpt: as §1, §2, §3

[5] = tested on: HCT116 cells; assay: MTT cell growth inhibition assay, HCT116; type: cell-based, human; details: for IC50: Homo sapiens, HCT-116, MTT, 48 h incubation, HCT116
Excerpt: as §1, §2, §3

[6] = tested on: SGC-7901 early differentiation gastric cancer cell; assay: MTT cell growth inhibition assay, SGC-7901; type: cell-based, human; details: Homo sapiens, 48 h incubation
Excerpt: as §1, §2, §3

[7] = tested on: AGS cells; assay: MTT cell growth inhibition assay, AGS; type: cell-based, human; details: for IC50: Homo sapiens, MTT, 48 h incubation, AGS
Excerpt: as §1, §2, §3

[8] = tested on: MCF-10A normal breast cell; assay: MTT cell growth inhibition assay, MCF-10A (normal); type: cell-based, human; details: Homo sapiens, 48 h incubation, MCF-10A normal cells
Excerpt: as §1, §2, §3

[9] = tested on: HeLa cervical cancer cell; assay: MTT cell growth inhibition assay, HeLa; type: cell-based, human; details: Homo sapiens, 48 h incubation
Excerpt: as §1, §2, §3

[10] = tested on: L-02 normal liver cell; assay: MTT cell growth inhibition assay, L-02 (normal); type: cell-based, human; details: Homo sapiens, 48 h incubation, L-02 normal cells
Excerpt: as §1, §2, §3

[11] = tested on: HepG2 hepatoma cell; assay: MTT cell growth inhibition assay, HepG-2; type: cell-based, human; details: Homo sapiens, HepG2; MTT, 48 h incubation, HepG-2
Excerpt: as §1, §2, §3

[12] = tested on: nine human cancer cell lines (MGC-803, A549, HepG2, AGS, BEL-7402, HCT116, HeLa, SGC-7901, and MCF-7); assay: MTT assay, panel of cell lines (result in words); type: cell-based; details: against all nine cancer cell lines
Excerpt: as §1, §2, §3

[13] = tested on: HeLa cells; parameters: method as in PMID 27887843; details: printed in Figure 1, previous experiment ref 2; cited from earlier work

Compound	IC50 [1]	IC50 ([2]; MGC-803, 48 h)	IC50 [3]	IC50 [4]	IC50 [5]	IC50 [6]	IC50 [7]	IC50 [8]	IC50 [9]	melting point	IC50 [10]	IC50 [11]	in vitro anticancer activity [12]	IC50 [13]	IC50 [2]	SI IC50 (L-02/BEL-7402) ([1]; selectivity index, IC50 (L-02)/IC50 (BEL-7402))	SI IC50 (MCF-10A/MCF-7) ([3]; selectivity index, IC50 (MCF-10A)/IC50 (MCF-7))	SI IC50 (L-02/HCT116) ([5]; selectivity index, IC50 (L-02)/IC50 (HCT116))	SI IC50 (L-02/AGS) ([7]; selectivity index, IC50 (L-02)/IC50 (AGS))
COc1cc(/C(C#N)=C/c2ccc(Oc3ccccc3)cc2)cc(OC)c1OC [Compound 6b]	> 100 µM	> 100 µM	> 100 µM	> 100 µM	> 100 µM	> 100 µM	> 100 µM	> 100 µM	> 100 µM	92 to 94 °C	> 100 µM	> 100 µM	extremely poor	–	–	–	–	–	–
COc1cc(/C(C#N)=C/c2ccccn2)cc(OC)c1OC [Compound 7b, (Z)-3-(Pyridin-2-yl)-2-(3,4,5-trimethoxyphenyl)acrylonitrile]	44.6 ± 32.7 µM	> 100 µM	16 ± 5.67 µM	> 100 µM	> 100 µM	> 100 µM	> 100 µM	33.4 ± 17.4 µM	> 100 µM	128 to 130 °C	> 100 µM	> 100 µM	extremely poor	–	–	–	–	–	–
Oc1ccc(/C=C/c2cc(O)cc(O)c2)cc1 [Resveratrol, (E)-3,5,4′-trihydroxystilbene]	–	–	–	–	–	–	–	–	–	–	–	–	–	120 µM	–	–	–	–	–
COc1cc(/C=C(\C#N)c2cc(OC)c(OC)c(OC)c2)cc(OC)c1OC [Compound 6e, (Z)-2,3-Bis(3,4,5-trimethoxyphenyl)acrylonitrile]	31.2 ± 2.01 µM	> 100 µM	32.9 ± 17.6 µM	> 100 µM	32.1 ± 5.25 µM	> 100 µM	44.6 ± 9.11 µM	15.6 ± 2.45 µM	> 100 µM	84 to 86 °C	70.6 ± 7.65 µM	> 100 µM	weak anticancer activity	–	–	–	–	–	–
COc1cccc(/C=C(\C#N)c2cc(OC)c(OC)c(OC)c2)c1 [Compound 6c, (Z)-3-(3-Methoxyphenyl)-2-(3,4,5-trimethoxyphenyl)acrylonitrile]	> 100 µM	–	65.1 ± 6.64 µM	> 100 µM	> 100 µM	> 100 µM	> 100 µM	> 100 µM	> 100 µM	144 to 146 °C	> 100 µM	> 100 µM	extremely poor	–	22.6 ± 9.25 µM	–	–	–	–
Cc1ccc(/C(C#N)=C/c2ccccn2)cc1 [Compound 14b, (Z)-3-(Pyridin-2-yl)-2-(p-tolyl)acrylonitrile]	> 100 µM	> 100 µM	> 100 µM	> 100 µM	> 100 µM	> 100 µM	> 100 µM	> 100 µM	> 100 µM	102 to 104 °C	> 100 µM	> 100 µM	–	–	–	–	–	–	–
COc1cc(/C(C#N)=C/c2cccs2)cc(OC)c1OC [Compound 7a, (Z)-3-(Thiophen-2-yl)-2-(3,4,5-trimethoxyphenyl)acrylonitrile]	1.82 ± 1.2 µM	0.67 ± 0.22 µM	15 ± 2 µM	> 100 µM	16.6 ± 10.3 µM	> 100 µM	8.01 ± 1.65 µM	55.8 ± 10.4 µM	> 100 µM	102 to 104 °C	21.2 ± 10.8 µM	> 100 µM	–	–	–	>11.6	>3.7	>1.2	>2.6
COc1cc(/C=C(\C#N)c2ccc(C)cc2)cc(OC)c1OC [Compound 13c, (Z)-2-(p-Tolyl)-3-(3,4,5-trimethoxyphenyl)acrylonitrile]	77.3 ± 0.26 µM	> 100 µM	33.9 ± 7.3 µM	> 100 µM	79.2 ± 5.21 µM	> 100 µM	66.2 ± 3.65 µM	> 100 µM	> 100 µM	135 to 137 °C	> 100 µM	> 100 µM	–	–	–	–	–	–	–
COc1cc(/C(C#N)=C/c2ccc([N+](=O)[O-])cc2)cc(OC)c1OC [Compound 6a, (Z)-3-(4-Nitrophenyl)-2-(3,4,5-trimethoxyphenyl)acrylonitrile]	> 100 µM	> 100 µM	> 100 µM	> 100 µM	> 100 µM	> 100 µM	> 100 µM	> 100 µM	> 100 µM	174 to 176 °C	> 100 µM	> 100 µM	extremely poor	–	–	–	–	–	–
